Data from US20110230481A2, “DERIVATIVES OF TETRABROMOBENZIMIDAZOLE, A PROCESS FOR THE PREPARATION THEREOF, A PHARMACEUTICAL COMPOSITION COMPRISING THE SAME, A METHOD OF USING THE SAME, A METHOD FOR MODULATING OR REGULATING SERINE/THREONINE KINASES, AND SERINE/THREONINE KINASES MODULATING AGENT” (SELVITA S.A., priority 2009, published 2011).

Tests used:
Assay in all cases: KINOMEscan Max
[1] = test system: FLT3(ITD); type: binding, human; details: 1 μM
Experimental: (§1) Kinase panel profiling was performed at Ambit Kinomescan (http://www.ambitbio.com/technology/) using the “KINOMEscan™ Max” assay platform, a high-throughput method for screening small molecule compounds against large numbers of human kinases. KINOMEscan™ is based on a competition binding assay that quantitatively measures the ability of a compound to compete with an immobilized, active-site directed ligand. The assay is performed by combining three components: DNA-tagged kinase; immobilized ligand; and a test compound. The ability of the test compound to compete with the immobilized ligand is measured via quantitative PCR of the DNA tag. For a description of Ambit's assay protocol, see Fabian et al. A small molecule-kinase interaction map for clinical kinase inhibitors. Nat. Biotechnol. 23, 329-336 (2005).

[2] = test system: ISR1; type: binding, human; details: 1 μM
Experimental: as §1

[3] = test system: EGFR(L747-S572del. P573S); type: binding, human; details: 1 μM
Experimental: as §1

[4] = test system: EGFR(S572-I759del); type: binding, human; details: 1 μM
Experimental: as §1

[5] = target: T1, AMPK-alpha2 (Homo sapiens, UniProt P54646); type: binding
T1 construct: DNA tag (qPCR label); purchased Ambit Kinomescan (contract screening)
T1 sequence (P54646 whole entry): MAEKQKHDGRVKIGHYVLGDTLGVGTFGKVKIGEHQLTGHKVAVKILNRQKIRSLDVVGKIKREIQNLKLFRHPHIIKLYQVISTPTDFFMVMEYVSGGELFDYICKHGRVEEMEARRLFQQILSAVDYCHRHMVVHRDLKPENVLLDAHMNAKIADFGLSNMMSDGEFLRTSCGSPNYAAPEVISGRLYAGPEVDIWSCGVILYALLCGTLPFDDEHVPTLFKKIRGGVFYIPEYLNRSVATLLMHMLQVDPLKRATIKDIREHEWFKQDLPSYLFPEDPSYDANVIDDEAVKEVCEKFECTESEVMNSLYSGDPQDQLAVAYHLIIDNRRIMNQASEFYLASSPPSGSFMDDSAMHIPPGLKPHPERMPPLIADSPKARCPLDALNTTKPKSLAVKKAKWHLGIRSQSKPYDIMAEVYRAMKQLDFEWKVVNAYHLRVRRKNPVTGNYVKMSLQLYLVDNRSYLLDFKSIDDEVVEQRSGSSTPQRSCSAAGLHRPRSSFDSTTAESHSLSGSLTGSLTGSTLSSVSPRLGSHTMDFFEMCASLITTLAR
Summary of the method: (§2)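 Immobilized active-site directed ligand captures DNA-tagged kinase unless test compound competes it off; captured kinase is then quantified by qPCR of the DNA tag.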

[6] = target: TXK (Homo sapiens, UniProt P42681); type: binding
Chain of TXK (P42681 whole entry): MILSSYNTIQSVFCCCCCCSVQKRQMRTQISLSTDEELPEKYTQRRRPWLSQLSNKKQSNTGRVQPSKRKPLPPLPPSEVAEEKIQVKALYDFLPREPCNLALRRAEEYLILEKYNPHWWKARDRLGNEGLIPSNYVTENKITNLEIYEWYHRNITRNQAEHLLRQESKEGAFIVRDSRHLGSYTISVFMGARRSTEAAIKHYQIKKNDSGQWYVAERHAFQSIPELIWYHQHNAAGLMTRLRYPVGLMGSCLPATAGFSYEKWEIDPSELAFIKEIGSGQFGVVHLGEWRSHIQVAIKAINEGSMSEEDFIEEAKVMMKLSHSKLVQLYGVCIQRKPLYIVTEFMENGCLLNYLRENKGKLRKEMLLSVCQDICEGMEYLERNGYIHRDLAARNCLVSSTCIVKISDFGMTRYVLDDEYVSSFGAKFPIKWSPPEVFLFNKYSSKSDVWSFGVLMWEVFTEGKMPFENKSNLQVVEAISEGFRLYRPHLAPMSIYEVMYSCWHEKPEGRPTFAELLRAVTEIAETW
Summary of the method: as §2

[7] = target: MRCKA (Homo sapiens, UniProt Q5VT25); type: binding
Chain of MRCKA (Q5VT25 whole entry): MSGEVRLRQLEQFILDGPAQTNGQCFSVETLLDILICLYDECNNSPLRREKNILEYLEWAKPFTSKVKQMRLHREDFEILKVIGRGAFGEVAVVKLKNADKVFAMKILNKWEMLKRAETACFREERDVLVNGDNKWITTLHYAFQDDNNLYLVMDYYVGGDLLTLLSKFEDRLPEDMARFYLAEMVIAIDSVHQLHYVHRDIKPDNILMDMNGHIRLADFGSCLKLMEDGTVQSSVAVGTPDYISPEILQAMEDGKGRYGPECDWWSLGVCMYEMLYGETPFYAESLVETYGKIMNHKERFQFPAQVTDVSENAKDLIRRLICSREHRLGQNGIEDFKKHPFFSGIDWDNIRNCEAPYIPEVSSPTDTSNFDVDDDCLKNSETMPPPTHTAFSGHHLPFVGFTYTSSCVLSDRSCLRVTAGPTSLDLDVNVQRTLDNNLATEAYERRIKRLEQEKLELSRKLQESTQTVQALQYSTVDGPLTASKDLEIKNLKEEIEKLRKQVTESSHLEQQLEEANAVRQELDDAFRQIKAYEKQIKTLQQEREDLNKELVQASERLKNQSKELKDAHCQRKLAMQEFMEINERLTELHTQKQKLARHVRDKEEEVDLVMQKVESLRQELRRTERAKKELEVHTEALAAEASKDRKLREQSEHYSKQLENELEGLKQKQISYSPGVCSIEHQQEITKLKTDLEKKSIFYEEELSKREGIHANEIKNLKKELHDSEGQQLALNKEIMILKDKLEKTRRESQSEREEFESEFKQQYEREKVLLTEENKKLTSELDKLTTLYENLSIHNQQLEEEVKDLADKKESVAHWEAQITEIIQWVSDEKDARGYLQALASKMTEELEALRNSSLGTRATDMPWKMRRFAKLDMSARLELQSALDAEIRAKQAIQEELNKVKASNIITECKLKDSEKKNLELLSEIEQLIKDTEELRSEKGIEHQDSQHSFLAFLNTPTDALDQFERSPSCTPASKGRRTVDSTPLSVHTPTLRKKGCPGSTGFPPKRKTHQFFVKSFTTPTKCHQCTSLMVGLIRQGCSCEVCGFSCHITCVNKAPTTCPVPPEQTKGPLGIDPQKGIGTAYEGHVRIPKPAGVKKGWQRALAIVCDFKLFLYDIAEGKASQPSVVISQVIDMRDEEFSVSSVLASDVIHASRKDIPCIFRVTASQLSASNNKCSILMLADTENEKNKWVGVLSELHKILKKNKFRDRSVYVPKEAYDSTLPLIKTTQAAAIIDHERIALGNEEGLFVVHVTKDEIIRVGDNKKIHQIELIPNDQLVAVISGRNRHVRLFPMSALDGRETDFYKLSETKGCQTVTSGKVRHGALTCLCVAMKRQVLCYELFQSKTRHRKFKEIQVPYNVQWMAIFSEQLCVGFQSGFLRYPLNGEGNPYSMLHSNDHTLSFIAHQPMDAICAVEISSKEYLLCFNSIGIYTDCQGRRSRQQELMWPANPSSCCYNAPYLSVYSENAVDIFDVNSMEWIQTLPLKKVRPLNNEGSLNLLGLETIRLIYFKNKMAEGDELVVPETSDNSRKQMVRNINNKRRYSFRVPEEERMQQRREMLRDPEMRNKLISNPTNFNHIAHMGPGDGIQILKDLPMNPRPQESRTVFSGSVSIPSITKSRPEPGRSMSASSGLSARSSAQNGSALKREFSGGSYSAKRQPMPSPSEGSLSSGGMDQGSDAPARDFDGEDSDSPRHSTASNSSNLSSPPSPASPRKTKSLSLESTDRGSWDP
Summary of the method: as §2

[8] = target: T2, MAP3K1 (Homo sapiens, UniProt Q13233); type: binding
T2 construct: purchased Ambit Kinomescan (contract panel)
T2 sequence (Q13233 whole entry): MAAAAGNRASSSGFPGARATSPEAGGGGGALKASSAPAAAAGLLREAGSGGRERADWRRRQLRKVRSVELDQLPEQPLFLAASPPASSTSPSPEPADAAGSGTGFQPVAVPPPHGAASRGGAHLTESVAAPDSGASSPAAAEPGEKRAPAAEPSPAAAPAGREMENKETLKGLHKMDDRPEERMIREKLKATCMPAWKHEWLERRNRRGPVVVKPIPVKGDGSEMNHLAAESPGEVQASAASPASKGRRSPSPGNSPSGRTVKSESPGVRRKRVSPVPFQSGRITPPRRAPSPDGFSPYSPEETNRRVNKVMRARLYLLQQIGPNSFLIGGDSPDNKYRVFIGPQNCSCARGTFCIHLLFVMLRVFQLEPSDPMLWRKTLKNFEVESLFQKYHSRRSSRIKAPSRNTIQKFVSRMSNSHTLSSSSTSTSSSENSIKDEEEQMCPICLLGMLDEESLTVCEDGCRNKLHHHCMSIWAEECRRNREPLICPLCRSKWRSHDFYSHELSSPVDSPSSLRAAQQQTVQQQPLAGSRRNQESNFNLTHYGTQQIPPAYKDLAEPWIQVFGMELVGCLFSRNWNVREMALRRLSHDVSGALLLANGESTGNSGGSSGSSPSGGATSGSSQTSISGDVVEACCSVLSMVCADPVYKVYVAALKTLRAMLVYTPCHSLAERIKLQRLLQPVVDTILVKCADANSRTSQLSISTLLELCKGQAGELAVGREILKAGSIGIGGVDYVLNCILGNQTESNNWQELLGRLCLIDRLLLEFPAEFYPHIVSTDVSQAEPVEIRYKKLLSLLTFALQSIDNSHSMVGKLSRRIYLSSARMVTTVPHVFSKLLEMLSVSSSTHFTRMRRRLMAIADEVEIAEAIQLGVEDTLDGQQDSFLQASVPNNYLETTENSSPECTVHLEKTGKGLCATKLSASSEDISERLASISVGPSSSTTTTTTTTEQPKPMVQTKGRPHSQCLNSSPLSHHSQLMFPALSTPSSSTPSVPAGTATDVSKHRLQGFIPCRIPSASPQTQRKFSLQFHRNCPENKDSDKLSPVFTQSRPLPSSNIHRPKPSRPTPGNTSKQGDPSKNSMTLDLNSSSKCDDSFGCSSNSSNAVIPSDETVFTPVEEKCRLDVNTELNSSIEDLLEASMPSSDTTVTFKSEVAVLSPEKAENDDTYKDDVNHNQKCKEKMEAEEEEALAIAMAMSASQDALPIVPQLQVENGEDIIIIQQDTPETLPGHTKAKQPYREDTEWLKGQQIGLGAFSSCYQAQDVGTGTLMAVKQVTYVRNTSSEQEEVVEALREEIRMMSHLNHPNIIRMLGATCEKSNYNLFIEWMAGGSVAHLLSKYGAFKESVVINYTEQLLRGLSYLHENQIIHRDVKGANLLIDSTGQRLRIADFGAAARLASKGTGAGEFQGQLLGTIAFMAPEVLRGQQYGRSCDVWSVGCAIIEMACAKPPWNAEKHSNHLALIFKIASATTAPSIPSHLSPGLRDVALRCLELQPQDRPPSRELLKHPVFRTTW
Summary of the method: as §2

[9] = target: T3, ERK1 (Homo sapiens, UniProt P27361); type: binding
T3 construct: purchased Ambit Kinomescan (contract panel, KINOMEscan Max)
T3 sequence (P27361 whole entry): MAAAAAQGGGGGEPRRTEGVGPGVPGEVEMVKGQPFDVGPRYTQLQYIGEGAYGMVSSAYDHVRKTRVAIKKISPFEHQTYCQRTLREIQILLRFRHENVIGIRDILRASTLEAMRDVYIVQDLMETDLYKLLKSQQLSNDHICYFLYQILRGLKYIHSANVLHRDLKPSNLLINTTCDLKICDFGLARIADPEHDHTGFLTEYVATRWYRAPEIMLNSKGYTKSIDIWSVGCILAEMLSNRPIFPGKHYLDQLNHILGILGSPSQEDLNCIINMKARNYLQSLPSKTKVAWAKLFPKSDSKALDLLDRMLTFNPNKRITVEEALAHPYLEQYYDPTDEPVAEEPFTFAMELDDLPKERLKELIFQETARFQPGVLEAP
Summary of the method: as §2

Question: What does the source list for NCCCNc1nc2c(Br)c(Br)c(Br)c(Br)c2[nH]1 [Compound 11, N-(3-aminopropyl)-4,5,6,7-tetrabromo-1H-benzo[d]imidazol-2-amine]?
Answer: % binding [1]: 35%; % binding [2]: 81%; % binding [3]: 86%; % binding [4]: 99%; remaining binding at 1 µM [5]: 100%; remaining binding at 1 µM [6]: 93%; remaining binding at 1 µM [7]: 100%; remaining binding at 1 µM [8]: 100%; remaining binding at 1 µM [9]: 100%
